This passage reports IC50 results from patent US11008317B2, “Triazolopyridine inhibitors of myeloperoxidase and/or EPX” (priority 2016, dated 2021).

For experiment [1], the target named is T1, myeloperoxidase (Homo sapiens, UniProt P05164).
T1 sequence (P05164 49-745): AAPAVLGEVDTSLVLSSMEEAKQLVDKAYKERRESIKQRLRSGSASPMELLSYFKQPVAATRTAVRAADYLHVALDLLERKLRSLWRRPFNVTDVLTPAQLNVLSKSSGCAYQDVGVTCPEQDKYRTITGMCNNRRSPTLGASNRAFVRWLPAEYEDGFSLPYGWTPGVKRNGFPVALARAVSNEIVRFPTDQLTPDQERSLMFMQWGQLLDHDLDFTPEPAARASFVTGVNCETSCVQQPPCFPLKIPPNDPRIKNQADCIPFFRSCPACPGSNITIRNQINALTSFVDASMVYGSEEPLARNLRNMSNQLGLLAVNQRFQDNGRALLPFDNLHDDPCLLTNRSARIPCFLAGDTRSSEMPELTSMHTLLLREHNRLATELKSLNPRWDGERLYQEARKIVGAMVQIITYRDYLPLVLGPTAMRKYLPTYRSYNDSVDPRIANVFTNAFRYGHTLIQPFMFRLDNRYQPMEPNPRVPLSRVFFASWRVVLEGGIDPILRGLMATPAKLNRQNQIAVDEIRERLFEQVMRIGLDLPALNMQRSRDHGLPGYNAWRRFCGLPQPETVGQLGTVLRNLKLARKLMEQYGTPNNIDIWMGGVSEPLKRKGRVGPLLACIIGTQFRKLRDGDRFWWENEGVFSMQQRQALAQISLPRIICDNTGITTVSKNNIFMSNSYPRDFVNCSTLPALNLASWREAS
Briefly: MPO Chlorination Assay (APF Assay). The following applies: potency range class, read-out: APF Assay IC50 value. Type of experiment: biochemical.

In experiment [2] the target is T1, myeloperoxidase. The experiment in a line: MPO Peroxidation Assay (Amplex Red Assay). Type of experiment: biochemical. The following applies: potency range class, read-out: Amplex Red Assay IC50 value.

Turning to `Nc1cc([C@H](Cc2nc3c(-c4cccc(Cl)c4)cccc3[nH]2)c2ccccc2)c2nn[nH]c2n1` [Example 247, (R)-7-(2-(4-(3-chlorophenyl)-1H-benzo[d]imidazol-2-yl)-1-phenylethyl)-3H-[1,2,3]triazolo [4,5-b]pyridin-5-amine], the IC50 at myeloperoxidase [1] is 1 to 100 nM; at myeloperoxidase [2], 101 to 999 nM.
For `COc1ccc2c(c1)CC[C@H]2NCCC(c1ccccc1)c1cc(N)nc2[nH]nnc12` (stereo partly drawn) [Example 121, 7-(3-{[(1R)-5-methoxy-2,3-dihydro-1H-inden-1-yl]amino}-1-phenylpropyl)-3H-[1,2,3]triazolo[4,5-b]pyridin-5-amine] the same measures were 101 to 999 nM and 101 to 999 nM.
Taken in the same sequence, the figures for `COC1CC2(NCCC(c3ccccc3)c3cc(N)nc4[nH]nnc34)CCC1(c1ccccc1)CC2` (stereo not shown) [Example 148, 7-[3-({3-methoxy-4-phenylbicyclo [2.2.2]octan-1-yl}amino)-1-phenylpropyl]-3H-[1,2,3]triazolo[4,5-b]pyridin-5-amine] were 1 to 100 nM and 1 to 100 nM.
For `Nc1cc(C(CCNCc2cccc3ccccc23)c2ccccc2)c2nn[nH]c2n1` (stereo not shown) [Example 17, 7-(3-((naphthalen-1-ylmethyl)amino)-1-phenylpropyl)-3H-[1,2,3]triazolo[4,5-b]pyridin-5-amine] the same measures were 1 to 100 nM and 101 to 999 nM.
Turning to `Nc1cc(C(CCNC2CCN(c3ccccc3)CC2)c2ccccc2)c2nn[nH]c2n1` (stereo not shown) [Example 92, N-(3-{5-amino-3H-[1,2,3]triazolo [4,5-b]pyridin-7-yl}-3-phenylpropyl)-1-phenylpiperidin-4-amine], the figures for the half-inhibitory concentration (IC50) on myeloperoxidase [1] and on myeloperoxidase [2] were 1 to 100 nM and 1000 to 10000 nM, respectively.
For the compound `Nc1cc([C@H](CC(=O)NC2CCC(c3ccccc3)c3ccccc32)c2ccccc2)c2nn[nH]c2n1` (stereo partly drawn) [Example 203, (3R)-3-{5-amino-3H-[1,2,3]triazolo[4,5-b]pyridin-7-yl}-3-phenyl-N-(4-phenyl-1,2,3,4-tetrahydronaphthalen-1-yl)propanamide], the IC50 was 101 to 999 nM on myeloperoxidase [1] and 1000 to 10000 nM on myeloperoxidase [2].
For `CC(C)(C)CNCCC(c1ccccc1)c1cc(N)nc2[nH]nnc12` (stereo not shown) [Example 20, 7-{3-[(2,2-dimethylpropyl)amino]-1-phenylpropyl}-3H-[1,2,3]triazolo[4,5-b]pyridin-5-amine] the same measures were 1000 to 10000 nM and 101 to 999 nM.
For `NC(=O)c1ccc(C2CCC(NCCC(c3ccccc3)c3cc(N)nc4[nH]nnc34)CC2)cc1` (stereo not shown) [Example 117, 4-{4-[(3-{5-amino-3H-[1,2,3]triazolo [4,5-b]pyridin-7-yl}-3-phenylpropyl)amino]cyclohexyl} benzamide] the same measures were 1 to 100 nM and 101 to 999 nM.
Taken in the same sequence, the figures for `CN(C)C(=O)c1cccc(-c2cccc3[nH]c(C[C@H](c4ccccc4)c4cc(N)nc5[nH]nnc45)nc23)c1` [Example 243, (R)-3-(2-(2-(5-amino-3H-[1,2,3]triazolo [4,5-b]pyridin-7-yl)-2-phenylethyl)-1H-benzo[d]imidazol-4-yl)-N,N-dimethylbenzamide] were 1 to 100 nM and 101 to 999 nM.
For `Nc1cc(C(CCN[C@H]2CCc3c(Cl)cccc32)c2ccccc2)c2nn[nH]c2n1` (stereo partly drawn) [Example 73, 7-(3-{[(1S)-4-chloro-2,3-dihydro-1H-inden-1-yl]amino}-1-phenylpropyl)-3H-[1,2,3]triazolo [4,5-b]pyridin-5-amine], the IC50 is 1 to 100 nM at myeloperoxidase [1] and 1000 to 10000 nM on myeloperoxidase [2].
Take `Nc1cc(C(CCNC(Cc2ccccc2)c2ccccc2)c2ccccc2)c2nn[nH]c2n1` (stereo not shown) [Example 48, 7-{3-[(1,2-diphenylethyl)amino]-1-phenylpropyl}-3H-[1,2,3]triazolo[4,5-b]pyridin-5-amine]: the IC50 at myeloperoxidase [1] lay in the range of 1 to 100 nM; on myeloperoxidase [2], 101 to 999 nM.
Taken in the same sequence, the figures for `CC1C[C@@H](NCCC(c2ccccc2)c2cc(N)nc3[nH]nnc23)c2ccccc21` (stereo partly drawn) [Example 88, 7-(3-{[(1R)-3-methyl-2,3-dihydro-1H-inden-1-yl]amino}-1-phenylpropyl)-3H-[1,2,3]triazolo[4,5-b]pyridin-5-amine] were 101 to 999 nM and 101 to 999 nM.
Regarding `Nc1cc([C@H](Cc2nc3ccccc3s2)c2ccccc2)c2nn[nH]c2n1` [Example 239, (R)-7-(2-(benzo[d]thiazol-2-yl)-1-phenylethyl)-3H-[1,2,3]triazolo[4,5-b]pyridin-5-amine], the IC50 lay within 101 to 999 nM at myeloperoxidase [1] and 1 to 100 nM on myeloperoxidase [2].
With `Nc1cc([C@H](CCCN2[C@@H]3CC[C@H]2C[C@](O)(c2ccc(Cl)cc2)C3)c2ccccc2)c2nn[nH]c2n1` [Example 216, (1R,3R,5S)-8-[(4R)-4-{5-amino-3H-[1,2,3]triazolo [4,5-b]pyridin-7-yl}-4-phenylbutyl]-3-(4-chlorophenyl)-8-azabicyclo[3.2.1] octan-3-ol], the IC50 at myeloperoxidase [1] was in the range of 1 to 100 nM; on myeloperoxidase [2], 101 to 999 nM.
For `Nc1cc([C@H](Cc2nc3ccc(-c4ccccc4)cc3c(=O)[nH]2)c2ccccc2)c2nn[nH]c2n1` [Example 241] the same measures were 1 to 100 nM and 101 to 999 nM.
`Nc1cc(C(CCNC2c3ccccc3CC2c2ccccc2)c2ccccc2)c2nn[nH]c2n1` (stereo not shown) [Example 56, 7-{1-phenyl-3-[(2-phenyl-2,3-dihydro-1H-inden-1-yl)amino]propyl}-3H-[1,2,3]triazolo[4,5-b] pyridin-5-amine]: the 50% inhibitory concentration (IC50) lay within 1 to 100 nM at myeloperoxidase [1] and 101 to 999 nM at myeloperoxidase [2].
For `N#CC1(c2ccccc2)CCN(CCCC(c2ccccc2)c2cc(N)nc3[nH]nnc23)CC1` (stereo not shown) [Example 211, 1-(4-{5-amino-3H-[1,2,3]triazolo [4,5-b]pyridin-7-yl}-4-phenylbutyl)-4-phenylpiperidine-4-carbonitrile] the same measures were 1 to 100 nM and 101 to 999 nM.
As to `Nc1cc(C(CCNCc2ccnc(C(F)(F)F)c2)c2ccccc2)c2nn[nH]c2n1` (stereo not shown) [Example 62, 7-[1-phenyl-3-({[2-(trifluoromethyl)pyridin-4-yl]methyl}amino)propyl]-3H-[1,2,3]triazolo[4,5-b]pyridin-5-amine], the IC50 on myeloperoxidase [1] and on myeloperoxidase [2] was 101 to 999 nM throughout.
Regarding `Nc1cc(C(CCN[C@H]2CC[C@H](c3ccccc3)CC2)c2cccc(Cl)c2)c2nn[nH]c2n1` (stereo partly drawn) [Example 162, 7-[1-(3-chlorophenyl)-3-{[(trans)-4-phenylcyclohexyl]amino}propyl]-3H-[1,2,3]triazolo [4,5-b]pyridin-5-amine], the IC50 on myeloperoxidase [1] fell in the range of 1 to 100 nM; at myeloperoxidase [2], 101 to 999 nM.
Taken in the same sequence, the figures for `N#Cc1cccc(-c2cccc3[nH]c(C[C@H](c4ccccc4)c4cc(N)nc5[nH]nnc45)nc23)c1` [Example 252, (R)-3-(2-(2-(5-amino-3H-[1,2,3]triazolo [4,5-b]pyridin-7-yl)-2-phenylethyl)-1H-benzo[d]imidazol-4-yl)benzonitrile] were 1 to 100 nM and 1000 to 10000 nM.
For `Nc1cc(C(CCNCc2ccccc2Oc2ccccc2)c2ccccc2)c2nn[nH]c2n1` (stereo not shown) [Example 74, 7-(3-{[(2-phenoxyphenyl)methyl]amino}-1-phenylpropyl)-3H-[1,2,3]triazolo[4,5-b]pyridin-5-amine] the same measures were 1 to 100 nM and 101 to 999 nM.
Taken in the same sequence, the figures for `Nc1cc([C@H](CCNC23CCC(c4ccccc4)(CC2)C(=O)C3)c2ccccc2)c2nn[nH]c2n1` [Example 182, 4-{[(3R)-3-{5-amino-3H-[1,2,3]triazolo [4,5-b]pyridin-7-yl}-3-phenylpropyl]amino}-1-phenylbicyclo [2.2.2]octan-2-one] were 1 to 100 nM and 101 to 999 nM.
As to `CC1(C)C[C@H](NCCC(c2ccccc2)c2cc(N)nc3[nH]nnc23)c2ccccc21` (stereo partly drawn) [Example 87, 7-(3-{[(1S)-3,3-dimethyl-2,3-dihydro-1H-inden-1-yl]amino}-1-phenylpropyl)-3H-[1,2,3]triazolo [4,5-b]pyridin-5-amine], the results for the IC50 on myeloperoxidase [1] and at myeloperoxidase [2] were 1 to 100 nM and 101 to 999 nM, respectively.
On to `Nc1cc(C(CNCCc2ccccc2)c2ccccc2)c2nn[nH]c2n1` (stereo not shown) [Example 228, 7-{1-phenyl-2-[(2-phenylethyl)amino]ethyl}-3H-[1,2,3]triazolo[4,5-b]pyridin-5-amine], for which the IC50 at myeloperoxidase [1] and on myeloperoxidase [2] was 1000 to 10000 nM in each case.
With `Nc1cc(C(CCNC2CCC(c3cccnc3)CC2)c2ccccc2)c2nn[nH]c2n1` (stereo not shown) [Example 132, 7-(1-phenyl-3-{[4-(pyridin-3-yl)cyclohexyl]amino]propyl)-3H-[1,2,3] triazolo[4,5-b] pyridin-5-amine], the IC50 on myeloperoxidase [1] and on myeloperoxidase [2] was 1000 to 10000 nM in each case.
In the case of `Nc1cc([C@H](CC(=O)NC23CCC(c4ccccc4)(CC2)CC3)c2ccccc2)c2nn[nH]c2n1` [Example 200, (R)-3-(5-amino-3H-[1,2,3]triazolo[4,5-b]pyridin-7-yl)-3-phenyl-N-(4-phenylbicyclo[2.2.2]octan-1-yl)propanamide], the IC50 at myeloperoxidase [1] lay within 1 to 100 nM; on myeloperoxidase [2], 101 to 999 nM.
